Laboratory results from PMC10066365, “Nemacol is a small molecule inhibitor of C. elegans vesicular acetylcholine transporter with anthelmintic potential” (Nature Communications, 2023).

Key:
[1] = test system: Dirofilaria immitis microfilariae; test: Dirofilaria immitis microfilariae immobility assay (DiroImager, 72 h); details: for % effect (motility), DIROIM MF: Dirofilaria immitis microfilariae; for EC50: Dirofilaria immitis, 72 h, read-out: Dirofilaria immitis filariae EC50
In short: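 About 250 freshly purified microfilariae of the Missouri isolate per well in supplemented RPMI 1640, exposed to compound for 72 h. Motility scored by automated whole-plate optical imaging; medium with 1% DMSO as negative control.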

[2] = test system: Dirofilaria immitis L3/L4; test: Dirofilaria immitis L3/L4 motility assay (DiroImager, 72 h); details: Dirofilaria immitis L4
[3] = test system: Pristionchus pacificus; test: Pristionchus pacificus motor disruption dose-response on solid media, 1 h; details: for mean % any phene (coiled, jerky-Unc or paralyzed): Pristionchus pacificus young adults, mean of three biological replicates; for EC50: Pristionchus pacificus, 1 h, read-out: P. pacificus motor disruption EC50
[4] = conc 3.75, observed at one hour

Row | Structure (SMILES) | % effect (motility), DIROIM MF ([1]; 0.08 µM) | % effect (motility), DIROIM MF ([1]; 0.4 µM) | % effect (motility), DIROIM MF ([1]; 2 µM) | % effect (motility), DIROIM MF ([1]; 10 µM) | % effect (motility), DIROIM MF ([1]; 50 µM) | EC50 [1] | % effect (motility), DIROIM L4 ([2]; 2 µM) | % effect (motility), DIROIM L4 ([2]; 10 µM) | % effect (motility), DIROIM L4 ([2]; 50 µM) | mean % any phene (coiled, jerky-Unc or paralyzed) [3, 4] | mean % any phene (coiled, jerky-Unc or paralyzed) ([3]; conc 15, observed at one hour) | mean % any phene (coiled, jerky-Unc or paralyzed) ([3]; conc 60, observed at one hour) | EC50 [3]
1 | O=[N+]([O-])c1ccc(N2CCN(CC3CC4C=CC3C4)CC2)cc1 (stereo not drawn) [Nemacol-3] | 0% | 0% | 0% | 80% | 100% | 9.1 µM | 0% | 75% | 100% | 0% | 16.6667% | 95% | 24.5 ± 2.2 µM
2 | CCC1CCC(N2CCN(c3ccc([N+](=O)[O-])cc3)CC2)CC1 (stereo not drawn) [Nemacol-2] |  |  |  |  |  |  |  |  |  | 4.167% | 89.1667% | 100% | 8.6 ± 1.3 µM
3 | O=[N+]([O-])c1ccc(N2CCN(CC3CC=CCC3)CC2)cc1 (stereo not drawn) [Nemacol-4] | 0% | 0% | 0% | 100% | 100% | 5.2 µM | 5% | 100% | 100% | 0% | 15.8333% | 100% | 19.2 µM
